Results: patent US8784911B2, “Compositions for treatment and prevention of diabetic complications using Osteomeles schwerinae” (Korea Institute of Oriental Medicine, priority 2009, dated 2014)
Read-outs that look alike come from different tables or passages of the source. Values belong to the compound of their own block, whether it stands above or below them.

Columns and labels:
aldose reductase = molecular target: T1, aldose reductase (Rattus norvegicus, UniProt P07943); test: In vitro inhibitory effect on aldose reductase activity; type: biochemical, SD rat; conditions: for inhibition of aldose reductase activity: compounds isolated from Osteomeles schwerinae extract
T1 construct: To obtain natural aldose reductase from eyeballs of SD rat; from tissue; host or cells: lens of Sprague-Dawley rat (homogenate supernatant)
Description: To obtain natural aldose reductase from eyeballs of SD rat (Sprague-Dawley rat, 250-280 g) by the method of Dufrane (1984), the extracted lens were pulverized together with 135 mM Na, K-phosphate buffer (pH 7.0), and 10 mm 2-mercaptoethanol using homogenizer and sonicater. After performing centrifugation at 14000 rpm for 30 minutes, the supernatant was filtered with 0.2 μm filter at 4° C. Quantification was performed by Lowry method using BSA as a protein source of enzyme. The mixture of 135 mM Na, K-phosphate buffer (pH 7.0), 100 mM lithium sulfate, 0.03 mM NADPH, 0.04 mM DL-glyceraldehyde and 100 μg/ml enzyme was dissolved in 0.1% DMSO, which was added to 50 μl of each sample diluted at different concentrations. Total volume of the mixture was adjusted to 1 ml, followed by reaction at 37° C. for 10 minutes. […] The reaction was terminated by adding 0.3 ml of 0.5 N HCl, to which 1 in of 6 M NaOH supplemented with 10 mM imidazole wad added, followed by reaction at 60° C. for 10 minutes. Then, conversion rate (NADP fluorescent product) was measured. Each sample was tested in triplicate. Inhibition effect was measured by using spectrofluorophotometric detector (Ex. 360 nm, Em. 460 nm, Bio-TEK, Synergy HT, USA) and the results were presented as IC50.

[1] = system: advanced glycation endproduct generation (bovine serum albumin with fructose and glucose); test: In vitro inhibitory effect on advanced glycation endproduct generation (BSA + fructose/glucose, fluorescence); type: biochemical
Description: Inhibitory effect of Osteomeles schwerinae small twig/leaf extract, fractions thereof obtained from each of hexane layer, ethyl acetate layer, butanol layer and water layer of the extract, and Osteomeles schwerinae seed extract on advanced glycation endproduct generation was investigated in vitro. Bovine serum albumin (BSA, Sigma, USA) was used as a protein source. BSA was added to 50 mM phosphate buffer (pH 7.4) at the concentration of 10 mg/ml. As a sugar source, the mixed solution of 0.2 M fructose and 0.2 M glucose was used. The mixed solution of fructose and glucose was added to the BSA solution. Osteomeles schwerinae small twig/leaf extract was prepared at different concentrations of 5 μg/ml, 10 μg/ml and 25 μg/ml. Hexane layer was also prepared at the concentrations of 10 μg/ml, 25 μg/ml and 50 μg/ml. Ethyl acetate layer was prepared at different concentrations of 5 μg/ml, 10 μg/ml and 25 μg/ml. Butanol layer and water layer were respectively prepared at the concentrations of 2.5 μg/ml, 5 μg/ml and 10 μg/ml. Osteomeles schwerinae seed extract was also prepared at different concentrations of 5 μg/ml, 10 μg/ml and 25 μg/ml. (All of those compounds were dissolved in DMSO, to which 15% tween 80 was added. At this time, the content of DMSO was 0.2%). Each extract or fraction was mixed with the mixed solution of BSA and sugars, followed by culture at 37° C. for 14 or 28 days. At this time, 0.02% sodium azide and antimycotics were added thereto as the antibacterial and antifungal agent. For the control, the mixed solution of BSA and sugars was cultured. The blank groups of each experimental and the control were composed as the above but not cultured. For the positive control, which would be used as an index for the comparison of the effect, aminoguanidine was used. To avoid error, 4 of each culture solution were prepared. 14 or 28 days later, the content of advanced glycation endproducts generated in each culture solution was measured and compared. AGEs therein were fluorescent and brown colored. They have physiochemical properties for the cross-linking and also have ligand that can be recognized by cell membrane receptor. The amount of AGEs having the said properties was measured with microplate reader (Excitation: 350 nm, Emission: 450 nm) to analyze the inhibitory effect on the generation of AGEs (Vinson, J. A. et al., J. Nutr. Biochem., 7: 659-663, 1996).
Inhibitory rate of generation was calculated by the following formula. Inhibitory rate of generation(%)=100−(fluorescence intensity of experimental group sample−fluorescence intensity of empty sample)/(fluorescence intensity of control group sample−fluorescence intensity of control group empty sample)×100
Aminoguanidine was dissolved in distilled water and then cultured at the concentrations of 37 μg/ml, 55.5 μg/ml and 74 μg/ml at 37° C. for 14 days and also cultured at the concentrations of 18.5 μg/ml, 37.0 μg/ml and 92.5 μg/ml for 28 days by the same manner as described above. The amount of advanced glycation endproducts generated in each culture solution was measured with microplate reader (Excitation: 350 nm, Emission: 450 nm). Inhibitory effect of Osteomeles schwerinae small twig/leaf extract, its fractions and Osteomeles schwerinae seed extract on advanced glycation endproduct generation was measured in vitro by the same manner as described above and the results are shown in Table 2.

[2] = system: type I diabetes animal model induced by streptozotocin (STZ); test: Type I diabetes animal model induced by streptozotocin; type: in vivo, SD rat
Description: Fully adapted (for 1 week) SD rats (6 weeks, 180-200 g) were used. After adaptation, the rats were fasted for 16 hours. Before the administration of samples, streptozotocin dissolved in 0.1 M citrate buffer (pH 4.5) was treated once by peritoneal injection (60 mg/kg). A week after the peritoneal injection, blood glucose level was measured at fasted or non-fasted state. Rats showing blood glucose level of at least 250 mg/dl at fasted state were selected and distributed fairly with considering the average. 5 groups were prepared as follows: the normal group treated with nothing (presented as Nor), the normal group treated with 200 mg/kg of Osteomeles schwerinae extract (presented as N+OS-141), the group induced with diabetes (presented as DM), the diabetes group treated with 100 mg/kg of Osteomeles schwerinae extract (presented as OS-100), and the positive control group treated with aminoguanidine (presented as AG). Osteomeles schwerinae extract and aminoguanidine were dissolved in water, which were administered orally to the rats every day (5 ml/kg) for 8 weeks. 8 weeks later, the animals were fasted, followed by autopsy. Blood was drawn from saphenons vein. Plasma was separated by centrifuging the whole blood at 3000 rpm at 4° C. The plasma was stored at −70° C. for the later use for data analysis. Each organ was weighed and frozen by using liquid nitrogen, which was stored at 70° C.
Urine was taken for 24 hours on the last week before autopsy to comparatively observe renal function indices and oxidative stress factors. ELISA was performed to measure AGEs and podocyte (synaptopodin). Urine was mixed with coating buffer (50 mM carbonate buffer, pH 9.6) at the ratio of 1:2, which was distributed in 96 well plate (100 μl/well). After incubating the plate at 37° C. for 3 hours, the plate was washed with 0.05% PBST three times, and blocked with 3% skim milk. The plate was stood for one hour and then washed. AGEs (Transgenic, Japan) and synaptopodin (Santa Cruz, USA) antibody were diluted at the ratio of 1:1000 respectively, followed by loading in each well of the plate by 100 μl, which stood at 37° C. for 2 hours. After washing the plate with 0.05% PBST, HRP-conjugated 2nd antibody was loaded in each well of the plate by 100 μl, which stood at 37° C. for 1 hour. 3,3′,5,5′-tetramethylbenzidine (TMB) was added in each well of the plate by 100 μl. Five minutes later, reaction termination solution (1M H2SO4) was added in each well of the plate by 100 μl and then OD was measured with ELISA reader. Albuminuria and creatinine (Cr) used as renal function indices were measured.
Kidney was extracted during autopsy, which was fixed in 10% neutralized formalin, followed by dehydration. The kidney was substituted with xylene three times, followed by embedding with paraffin. The embedded tissue block was cut into 4 μm sections, which were placed on microscope slide. PAS staining was performed to observe morphological changes. The stained slide was observed under optical microscope. […] To investigate fibrosis by collagen infiltrated in kidney cortex, Masson's trichrome staining was performed. Multiple numbers of collagen stained as blue by Masson's trichrome were observed around glomerular, basement membrane and in interstitial area between renal tubules in the diabetes group, but the difference was not significant from that of the normal group. […] Histological changes were traced 8 weeks after inducing diabetes. […]

[3] = 24 h urine, last week, vs diabetes group
[4] = STZ diabetic rats, 100 mg/kg oral daily, 8 weeks

SMILES: CC(=O)OC1C(c2c(O)cc(O)c3c(=O)cc(-c4ccc(O)cc4)oc23)OC(CO)C(O)C1O (centres unmarked) [2-O-acetylvitexin]
- inhibition of aldose reductase activity (aldose reductase): confirmed to inhibit
- inhibition of advanced glycation endproduct generation ([1]; compounds isolated from Osteomeles schwerinae extract): confirmed to inhibit

SMILES: Oc1cc(O)c2c(c1)O[C@H](c1ccc(O)c(O)c1)[C@H](O)C2 [(−)-epicatechin]
- inhibition of aldose reductase activity (aldose reductase): confirmed to inhibit
- inhibition of advanced glycation endproduct generation [1]: confirmed to inhibit

SMILES: C=C(C)C1CCC2(CO)CCC3(C)C(CCC4C5(C)CCC(OC(=O)C=Cc6ccc(O)c(O)c6)C(C)(C)C5CCC43C)C12 (stereo not drawn) [betuline-3β-yl-caffeate]
- inhibition of aldose reductase activity (aldose reductase): confirmed to inhibit
- inhibition of advanced glycation endproduct generation [1]: confirmed to inhibit

SMILES: C=C(C)C1CCC2(C(=O)O)CCC3(C)C(CCC4C5(C)CCC(OC(=O)C=Cc6ccc(O)c(O)c6)C(C)(C)C5CCC43C)C12 (stereo not drawn) [betulinic acid-3β-yl-caffeate]
- inhibition of aldose reductase activity (aldose reductase): confirmed to inhibit
- inhibition of advanced glycation endproduct generation [1]: confirmed to inhibit

More lines, main results first:

- inhibition at 3.72 µg/mL (aldose reductase; 3.72 μg/ml (20 μm)): 39.3 ± 4.17%
- inhibition at 4.66 µg/mL (aldose reductase; 4.66 μg/ml (25 μm)): 55.7 ± 3.25%
- inhibition at 5.59 µg/mL (aldose reductase; 5.59 μg/ml (30 μm)): 60.3 ± 1.39%
- IC50 (aldose reductase; read-out: inhibitory effect (IC50) on aldose reductase): 24.1 µM
- IC50 (aldose reductase; read-out: inhibitory effect (IC50, μg/ml) on aldose reductase (converted)): 24.2 µM
SMILES: O=C(O)CC1(CC(=O)O)CCCC1 [3,3-tetramethyleneglutaric acid]

- inhibitory effect (IC50, μg/ml) ([1]; 14 day): 71.13 µg/mL
- Inhibitory effect (%) ([1]; 14 day, 37 μg/ml): 27.42 ± 1.51%
- Inhibitory effect (%) ([1]; 14 day, 55.5 μg/ml): 39.96 ± 0.90%
- Inhibitory effect (%) ([1]; 14 day, 74 μg/ml): 51.77 ± 1.91%
- inhibitory effect (IC50, μg/ml) ([1]; 28 day): 91.30 µg/mL
- Inhibitory effect (%) ([1]; 28 day, 18.5 μg/ml): 14.89 ± 4.11%
- Inhibitory effect (%) ([1]; 28 day, 37.0 μg/ml): 24.93 ± 3.46%
- Inhibitory effect (%) ([1]; 28 day, 92.5 μg/ml): 50.41 ± 0.41%
SMILES: N=C(N)NN [Aminoguanidine]
- expressions of AGEs and RAGE in kidney ([2]; 100 mg/kg): significantly reduced
- podocyte loss in glomerulus, synaptopodin and WT1 staining ([2]; 100 mg/kg, vs diabetes group): podocyte loss was reduced
- fibrosis by collagen in kidney cortex, Masson's trichrome staining ([2]; 8 weeks): such change was not peculiar
- glomerular basement membrane thickening, PAS staining ([2]; 8 weeks, vs untreated diabetes group): any change in glomerular basement membrane thickening was not observed
- Albuminuria [2, 3]: decreased significantly
- Urine alb/Cr [2, 3]: decreased
- Body weight (g) Initial ([2]; STZ diabetic rats, 100 mg/kg): 244.3 ± 4.02 g
- ALT (U/L) [2, 4]: 158.9 ± 26.25 U/L
- AST (U/L) [2, 4]: 341.6 ± 70.90 U/L
- Body weight (g) Final [2, 4]: 210.3 ± 9.98 g
- 8-OHdG in kidney ([2]; vs diabetes group): reduced in the group treated with AG, but the decrease was not that significant
